One test has as its system Alternaria alternata. The experiment in a line: Antifungal activity against Alternaria alternata assessed as fungal inhibition rate at 100 ug/ml relative to control. The test is classed as functional.
A further test has as its system Alternaria solani. The experiment in a line: Antifungal activity against Alternaria solani assessed as fungal inhibition rate at 100 ug/ml relative to control. It counts as functional.
The subject of a further test is Sclerotinia sclerotiorum. The test can be described thus: Fungicidal activity against Sclerotinia sclerotiorum assessed as fungal inhibitory rate at 16 ug/ml relative to control. The test is classed as functional.
The subject of a further test is Colletotrichum lagenaria. The experiment in a line: Fungicidal activity against Colletotrichum lagenarium assessed as fungal inhibitory rate at 16 ug/ml relative to control. It counts as functional.
Test [1] concerns Botrytis cinerea. The experiment in a line: Fungicidal activity against Botrytis cinerea assessed as fungal inhibitory rate at 16 ug/ml relative to control. The test is classed as functional.
In another test the test system is Penicillium digitatum. The experiment in a line: Fungicidal activity against Penicillium digitatum assessed as fungal inhibitory rate at 16 ug/ml relative to control. The test is classed as functional.
The subject of another test is Fusarium oxysporum. The experiment in a line: Fungicidal activity against Fusarium oxysporum assessed as fungal inhibitory rate at 16 ug/ml relative to control. The test is classed as functional.
Test [2] relates to Botrytis cinerea. The experiment in a line: Induction of morphological changes in Botrytis cinerea assessed as irregular mycelia at 0.5 ug/ml incubated for 6 days by SEM analysis. It counts as functional, organism-based. The conditions noted are these: dose 0.5 µg/ml, time 6.0 day.
Test [3] has as its system Botrytis cinerea. The experiment in a line: Induction of morphological changes in Botrytis cinerea assessed as uneven mycelia at 0.5 ug/ml incubated for 6 days by SEM analysis. It counts as functional, organism-based. Conditions: dose 0.5 µg/ml, time 6.0 day.
The subject of test [4] is Botrytis cinerea. The test can be described thus: Induction of morphological changes in Botrytis cinerea assessed as tangled mycelia at 0.5 ug/ml incubated for 6 days by SEM analysis. The test is classed as functional, organism-based. The conditions noted are these: dose 0.5 µg/ml, time 6.0 day.
Test [5] relates to Botrytis cinerea. The test can be described thus: Induction of morphological changes in Botrytis cinerea assessed as crinkly mycelia at 0.5 ug/ml incubated for 6 days by SEM analysis. The test is classed as functional, organism-based. Conditions: dose 0.5 µg/ml, time 6.0 day.
For test [6], the system named is Botrytis cinerea. The test can be described thus: Induction of morphological changes in Botrytis cinerea assessed as thin cell wall at 0.5 ug/ml incubated for 6 days by TEM analysis. It counts as functional, organism-based. Conditions: dose 0.5 µg/ml, time 6.0 day.
The test system of test [7] is Botrytis cinerea. The test can be described thus: Induction of morphological changes in Botrytis cinerea assessed as thin cell membrane at 0.5 ug/ml incubated for 6 days by TEM analysis. The test is classed as functional, organism-based. Conditions: dose 0.5 µg/ml, time 6.0 day.
The test system of test [8] is Botrytis cinerea. The experiment in a line: Induction of morphological changes in Botrytis cinerea assessed as cracked cell structure at 0.5 ug/ml incubated for 6 days by TEM analysis. The test is classed as functional, organism-based. The conditions noted are these: dose 0.5 µg/ml, time 6.0 day.
Test [9] in a line: Inhibition of Botrytis cinerea CYP51 by ELISA.
In test [10] the test system is Botrytis cinerea. The test can be described thus: Inhibition of Botrytis cinerea CYP51 by fluorescent quenching analysis. Conditions: dose <= 16.0 µg/ml.
The test system of test [11] is Botrytis cinerea. The test can be described thus: Fungicidal activity against Botrytis cinerea assessed as fungal growth reduction. It counts as functional, organism-based.
The next test concerns Aspergillus niger. The test can be described thus: Antifungal activity against Aspergillus niger. It counts as functional.
The subject of a further test is Candida albicans. The experiment in a line: Antifungal activity against Candida albicans. It counts as functional.
A further test concerns Aspergillus flavus. The experiment in a line: Antifungal activity against Aspergillus flavus. It counts as functional.

Values after ≈ are worked out from the molar mass of the structure shown. Active and inactive are the calls of the source. The calls are words filed in the database; no cut-off is given here.

These results are taken from ChEMBL document CHEMBL5506031, “Design, Synthesis, Bioactive Evaluation, and Molecular Dynamics Simulation of Novel 4H-Pyrano[3,2-c]pyridine Analogues as Potential Sterol 14α-Demethylase (CYP51) Inhibitors” (J Med Chem, 2024).

`Cc1cc(C)c2c(=O)oc3cc(OC(=O)C(C)Br)ccc3c2n1` (stereo not drawn): the inhibition at 100 µg/mL was 41.6% with Alternaria alternata and 52.4% in the test on Alternaria solani.
For `COC(=O)C1=C(N)OC2=C(CN(C(=O)c3ccco3)C/C2=C\c2ccco2)C1c1ccco1` (stereo not drawn), the inhibition at 16 µg/mL in the test on Sclerotinia sclerotiorum turned out to be 85%; in the test on Colletotrichum lagenaria, 86.8%; with Botrytis cinerea [1], 100%; with Penicillium digitatum, 78.4%; in the test on Fusarium oxysporum, 87.1%. Also, the result with Botrytis cinerea [2], in the test with Botrytis cinerea [3], in the test with Botrytis cinerea [4], in the test on Botrytis cinerea [5], with Botrytis cinerea [6] and in the test with Botrytis cinerea [7] was Active. Also, the outcome in the test with Botrytis cinerea [8] was Active. In test [9], this compound registered an IC50 of 0.377 µg/mL (≈ 0.841 µM). The inhibition result in the test with Botrytis cinerea [10] is “Dose-Dependent Effect”.
Consider `COC(=O)C1=C(N)OC2=C(CN(C(=O)c3ccco3)C/C2=C\c2ccc(Br)o2)C1c1ccc(Br)o1` (stereo not drawn), for which the inhibition at 16 µg/mL with Sclerotinia sclerotiorum is 82.7%; with Colletotrichum lagenaria it was 84.9%; in the test with Botrytis cinerea [1], 100%; with Penicillium digitatum it was 76%; with Fusarium oxysporum, 83.5%. Moreover, in the test on Botrytis cinerea [11], the EC50 was determined as 0.53 µg/mL (≈ 0.874 µM). For the same compound, the result in the test on Botrytis cinerea [2], with Botrytis cinerea [3], in the test on Botrytis cinerea [4], in the test with Botrytis cinerea [5], in the test with Botrytis cinerea [6] and in the test on Botrytis cinerea [7] was Active. Further, the outcome in the test on Botrytis cinerea [8] was Active. In test [9], this compound showed an IC50 of 0.611 µg/mL (≈ 1.01 µM). The inhibition entry with Botrytis cinerea [10] is “Dose-Dependent Effect”.
In turn, `COc1ccc(C2c3ccc4ccccc4c3Oc3[nH]c(=S)[nH]c(=S)c32)cc1` (stereo not drawn) returned an MIC with Aspergillus niger of 125 µg/mL (≈ 309 µM).
`COc1ccc(NC(=O)c2cc3c(CO)cnc(C)c3o/c2=N\c2ccc(Cl)c(C)c2)cc1` returned an MIC in the test on Candida albicans of 12.5 µg/mL (≈ 26.9 µM).
With `CC1(C)CC(=O)C2=C(C1)OC(N)=C(C#N)C2c1ccc(F)cc1` (stereo not drawn), the MIC in the test with Aspergillus flavus and against Aspergillus niger was 12.5 µg/mL (≈ 40 µM) each time.
For the compound `CC1(C)CC(=O)C2=C(C1)OC(N)=C(C#N)C2c1ccco1` (stereo not drawn), the MIC with Candida albicans and with Aspergillus niger was 12.5 µg/mL (≈ 44 µM) each time.
In the test on Aspergillus niger, `COc1ccc(C2c3ccc4ncccc4c3Oc3nc[nH]c(=S)c32)cc1` (stereo not drawn) returned an MIC of 125 µg/mL (≈ 335 µM).
Turning to `Fc1ccc([C@@]2(Cn3cncn3)O[C@@H]2c2ccccc2Cl)cc1`, the inhibition at 16 µg/mL with Sclerotinia sclerotiorum was found to be 100%; with Colletotrichum lagenaria, 94.3%; in the test on Botrytis cinerea [1] it was 100%; in the test with Penicillium digitatum it was 78.6%; with Fusarium oxysporum, 87.3%. For the same compound, the EC50 with Botrytis cinerea [11] was determined as 0.67 µg/mL (≈ 2.03 µM). Further, the outcome with Botrytis cinerea [2], with Botrytis cinerea [3], with Botrytis cinerea [4], in the test with Botrytis cinerea [5], with Botrytis cinerea [6] and in the test with Botrytis cinerea [7] was Active. For the same compound, the result in the test with Botrytis cinerea [8] was Active. The same compound gave an IC50 in test [9] of 0.802 µg/mL (≈ 2.43 µM). For the same compound, in the test on Botrytis cinerea [10], the inhibition entry is “Dose-Dependent Effect”.
In the case of `COC(=O)C1=C(C)OC(N)=C(C#N)C1c1ccc(F)cc1` (stereo not drawn), the MIC against Candida albicans and in the test with Aspergillus flavus was 12.5 µg/mL (≈ 43.4 µM) each time.
Take `N#CC1=C(N)OC2=C(CN(C(=O)c3cccs3)C/C2=C\c2ccco2)C1c1ccco1` (stereo not drawn): the inhibition at 16 µg/mL in the test with Sclerotinia sclerotiorum was determined as 58.5%; in the test on Colletotrichum lagenaria it was 57%; in the test with Botrytis cinerea [1], 100%; in the test on Penicillium digitatum, 51.7%; in the test with Fusarium oxysporum it was 52.7%. For the same compound, in the test with Botrytis cinerea [11], the EC50 was found to be 1.34 µg/mL (≈ 3.1 µM). For the same compound, the IC50 in test [9] worked out at 1.649 µg/mL (≈ 3.82 µM).
Consider `CCCC(Br)C(=O)Oc1ccc2c(c1)oc(=O)c1c(C)c(C(=O)OCC)c(C)nc12` (stereo not drawn), for which the figures for the inhibition at 100 µg/mL with Alternaria alternata and in the test on Alternaria solani were 44.6% and 40.7%, respectively.
Take `N#CC1=C(N)OC2=C(CN(C(=O)c3ccco3)C/C2=C\c2ccc(Br)o2)C1c1ccc(Br)o1` (stereo not drawn): the inhibition at 16 µg/mL with Sclerotinia sclerotiorum is 55.2%; in the test with Colletotrichum lagenaria it was 55.8%; in the test on Botrytis cinerea [1] it was 100%; in the test with Penicillium digitatum, 49%; in the test with Fusarium oxysporum it was 50.5%. Besides, the EC50 in the test with Botrytis cinerea [11] turned out to be 1.71 µg/mL (≈ 2.98 µM). Besides, the IC50 in test [9] came to 1.86 µg/mL (≈ 3.24 µM).
For `CCOC(=O)c1c(C)nc2c(c1C)c(=O)oc1c(OC(=O)C(Br)CC)cccc12` (stereo not drawn), the inhibition at 100 µg/mL with Alternaria alternata was 62.1%; in the test on Alternaria solani, 54.6%.
